Source: patent US12404239B2, “Modulators of BCL6 as ligand directed degraders” (Celgene Corporation, priority 2022, dated 2025)

Biological target: T1, BCL6 (Homo sapiens, UniProt P41182)
T1 construct: HiBiT-tag knocked into endogenous BCL6 locus using CRISPR; endogenous in cells; host or cells: DHL-4_BCL6_HiBiT cells (CRISPR knock-in)
Assay: BCL6_HiBiT degradation assay (2 h)
Type: cell-based
Conditions: DHL-4_BCL6_HiBiT cells; for Percent BCL6 remaining at maximal degradation (Ycon): read-out: YCon (% remaining maximal effect)
Procedure: A DHL-4 cell line with HiBiT-tag knocked into endogenous BCL6 locus using CRISPR was generated. The DHL-4_BCL6_HiBiT cells were dispensed into 384-well plates (Corning no. 3570) that were pre-spotted with compounds. Compounds were dispensed by an acoustic dispenser (ATS acoustic transfer system from EDC Biosystems) into a 384-well plate in a 10-point dose response curve using 3-fold dilutions starting at 1-10 μM and going down to […]. 25 μL of media (RPMI-1640+10% heat inactivated FBS+1×Pen/Strep) containing 2500 of DHL-4 was dispensed per well. Assay plates were incubated at 37° C. with 5% CO2 for 2 hours. After incubation, 25 μL of the Nano-Glo HiBiT lytic detection working solution (Promega, catalogue no. N3040, Madison, WI) was added to each well and incubated at room temperature for 15-30 min, protected from light. After 30 min, luminescence was read on an Envision or PHERAstar luminescence reader. To determine the EC50 value (the half-maximum effective concentration) and the level of the gradation (Yconstant) of a BCL6 degrader, luminescent signal normalized by DMSO control (Y) and compound concentration (x) was fitted using a four-parameter dose-response model (Y=(A+((B−A)/1+((C/x)^D) in Dotmatics. Fitted value C is the degradation EC50 and the minimum value A is the Y constant.
The degradation of BCL6 at 2 h in DHL-4 results are shown in Table 5, where EC50 is the half maximal effect and Ycon is the % remaining maximal effect.

SMILES | Percent BCL6 remaining at maximal degradation (Ycon) [%] | YCon (% remaining maximal effect)
CN1C(=O)Cc2cc(Nc3nc(N4CC[C@H](Nc5ccc6c(C7CCC(=O)NC7=O)nn(C)c6c5)[C@H](C(F)(F)F)C4)ncc3Cl)ccc21 (relative stereo) [Example 147, rel-3-(6-(((3R,4S)-1-(5-chloro-4-((1-methyl-2-oxoindolin-5-yl)amino)pyrimidin-2-yl)-3-(trifluoromethyl)piperidin-4-yl)amino)-1-methyl-1H-indazol-3-yl)piperidine-2,6-dione] | > 60 | –
CC1CCN(c2ncc(Cl)c(Nc3ccc4c(c3)CC(=O)N4C)n2)CCC1Nc1ccc2c(C3CCC(=O)NC3=O)nn(C)c2c1 (single isomer, unassigned) [Example 48, 3-(6-((1-(5-chloro-4-((1-methyl-2-oxoindolin-5-yl)amino)pyrimidin-2-yl)-5-methylazepan-4-yl)amino)-1-methyl-1H-indazol-3-yl)piperidine-2,6-dione] | > 60 | –
CC1CN(c2ncc(Cl)c(Nc3ccc4c(c3)CC(=O)N4C)n2)CCCC1Nc1ccc2c(C3CCC(=O)NC3=O)nn(C)c2c1 (single isomer, unassigned) [Example 50, 3-(6-((1-(5-chloro-4-((1-methyl-2-oxoindolin-5-yl)amino)pyrimidin-2-yl)-3-methylazepan-4-yl)amino)-1-methyl-1H-indazol-3-yl)piperidine-2,6-dione] | – | (>60%)
CC1CN(c2ncc(Cl)c(Nc3ccc4c(c3)CC(=O)N4C)n2)CCCC1Nc1ccc2c(C3CCC(=O)NC3=O)nn(C)c2c1 (single isomer, unassigned) [Example 51, 3-(6-((1-(5-chloro-4-((1-methyl-2-oxoindolin-5-yl)amino)pyrimidin-2-yl)-3-methylazepan-4-yl)amino)-1-methyl-1H-indazol-3-yl)piperidine-2,6-dione] | – | ^^ (20-60%)
CN1C(=O)Cc2cc(Nc3nc(N4CCC(Nc5ccc6c(C7CCC(=O)NC7=O)nn(C)c6c5)CC4)ncc3Cl)ccc21 (single isomer, unassigned) [Example 53] | – | ^^ (20-60%)
CN1C(=O)Cc2cc(Nc3nc(N4CCC(Nc5ccc6c(C7CCC(=O)NC7=O)nn(C)c6c5)CC4)ncc3Cl)ccc21 (single isomer, unassigned) [Example 54] | – | (>60%)
C[C@@H]1CN(c2ncc(Cl)c(Nc3ccc4c(c3)CC(=O)N4C)n2)CC[C@H]1Nc1ccc2c([C@H]3CCC(=O)NC3=O)nn(C)c2c1 (single isomer, unassigned) [Example 71] | < 20 | –
C[C@@H]1CN(c2ncc(Cl)c(Nc3ccc4c(c3)CC(=O)N4C)n2)CC[C@H]1Nc1ccc2c([C@@H]3CCC(=O)NC3=O)nn(C)c2c1 (single isomer, unassigned) [Example 72] | < 20 | –
COCCN1C(=O)Cc2cc(Nc3nc(N4CC[C@@H](Nc5ccc6c([C@H]7CCC(=O)NC7=O)nn(C)c6c5)[C@H](C)C4)ncc3Cl)ccc21 (single isomer, unassigned) [Example 76] | < 20 | –
COCCN1C(=O)Cc2cc(Nc3nc(N4CC[C@@H](Nc5ccc6c([C@@H]7CCC(=O)NC7=O)nn(C)c6c5)[C@H](C)C4)ncc3Cl)ccc21 (single isomer, unassigned) [Example 77] | < 20 | –
C[C@@H]1CN(c2ncc(Cl)c(Nc3ccc4c(c3)CC(=O)N4C)n2)C[C@@H](C)N1c1ccc2c([C@H]3CCC(=O)NC3=O)nn(C)c2c1 (single isomer, unassigned) [Example 79] | 20 to 60 | –
C[C@@H]1CN(c2ncc(Cl)c(Nc3ccc4c(c3)CC(=O)N4C)n2)C[C@@H](C)N1c1ccc2c([C@@H]3CCC(=O)NC3=O)nn(C)c2c1 (single isomer, unassigned) [Example 80] | > 60 | –
C[C@H]1C[C@H](Nc2ccc3c([C@H]4CCC(=O)NC4=O)nn(C)c3c2)CCN1c1ncc(Cl)c(Nc2ccc3c(c2)CC(=O)N3C)n1 (single isomer, unassigned) [Example 82] | < 20 | –
C[C@H]1C[C@H](Nc2ccc3c([C@@H]4CCC(=O)NC4=O)nn(C)c3c2)CCN1c1ncc(Cl)c(Nc2ccc3c(c2)CC(=O)N3C)n1 (single isomer, unassigned) [Example 83] | 20 to 60 | –
C[C@H]1C[C@H](N(C)c2ccc3c([C@H]4CCC(=O)NC4=O)nn(C)c3c2)CCN1c1ncc(Cl)c(Nc2ccc3c(c2)CC(=O)N3C)n1 (single isomer, unassigned) [Example 87] | > 60 | –
C[C@H]1C[C@H](N(C)c2ccc3c([C@@H]4CCC(=O)NC4=O)nn(C)c3c2)CCN1c1ncc(Cl)c(Nc2ccc3c(c2)CC(=O)N3C)n1 (single isomer, unassigned) [Example 88] | > 60 | –
CCN1C(=O)Cc2cc(Nc3nc(N4CCC(Nc5ccc6c([C@H]7CCC(=O)NC7=O)nn(C)c6c5)CC4)ncc3Cl)ccc21 (single isomer, unassigned) [Example 90] | > 60 | –

SMILES | Percent BCL6 remaining at maximal degradation (Ycon) [%] | YCon (% remaining maximal effect)
CCN1C(=O)Cc2cc(Nc3nc(N4CCC(Nc5ccc6c([C@@H]7CCC(=O)NC7=O)nn(C)c6c5)CC4)ncc3Cl)ccc21 (single isomer, unassigned) [Example 91] | > 60 | –
C[C@@H]1CN(c2ncc(Cl)c(Nc3cc4c(cc3F)N(C)C(=O)C4)n2)CC[C@H]1Nc1ccc2c([C@H]3CCC(=O)NC3=O)nn(C)c2c1 (single isomer, unassigned) [Example 93] | < 20 | –
C[C@@H]1CN(c2ncc(Cl)c(Nc3cc4c(cc3F)N(C)C(=O)C4)n2)CC[C@H]1Nc1ccc2c([C@@H]3CCC(=O)NC3=O)nn(C)c2c1 (single isomer, unassigned) [Example 94] | < 20 | –
C[C@@H]1CN(c2ncc(Cl)c(Nc3cc(F)c4c(c3)CC(=O)N4C)n2)CC[C@H]1Nc1ccc2c([C@H]3CCC(=O)NC3=O)nn(C)c2c1 (single isomer, unassigned) [Example 96] | < 20 | –
C[C@@H]1CN(c2ncc(Cl)c(Nc3cc(F)c4c(c3)CC(=O)N4C)n2)CC[C@H]1Nc1ccc2c([C@@H]3CCC(=O)NC3=O)nn(C)c2c1 (single isomer, unassigned) [Example 97] | < 20 | –
C[C@@H]1CN(c2ncc(Cl)c(Nc3ccc4c(c3F)CC(=O)N4C)n2)CC[C@H]1Nc1ccc2c([C@H]3CCC(=O)NC3=O)nn(C)c2c1 (single isomer, unassigned) [Example 99] | < 20 | –
C[C@@H]1CN(c2ncc(Cl)c(Nc3ccc4c(c3F)CC(=O)N4C)n2)CC[C@H]1Nc1ccc2c([C@@H]3CCC(=O)NC3=O)nn(C)c2c1 (single isomer, unassigned) [Example 100] | < 20 | –
C[C@@H]1CN(c2ncc(Cl)c(Nc3ccc4c(c3)CC(=O)N4CCN3CCOCC3)n2)CC[C@H]1Nc1ccc2c([C@H]3CCC(=O)NC3=O)nn(C)c2c1 (single isomer, unassigned) [Example 102] | < 20 | –
C[C@@H]1CN(c2ncc(Cl)c(Nc3ccc4c(c3)CC(=O)N4CCN3CCOCC3)n2)CC[C@H]1Nc1ccc2c([C@@H]3CCC(=O)NC3=O)nn(C)c2c1 (single isomer, unassigned) [Example 103] | < 20 | –
CNCCN1C(=O)Cc2cc(Nc3nc(N4CC[C@@H](Nc5ccc6c([C@H]7CCC(=O)NC7=O)nn(C)c6c5)[C@H](C)C4)ncc3Cl)ccc21 (single isomer, unassigned) [Example 105] | < 20 | –
CNCCN1C(=O)Cc2cc(Nc3nc(N4CC[C@@H](Nc5ccc6c([C@@H]7CCC(=O)NC7=O)nn(C)c6c5)[C@H](C)C4)ncc3Cl)ccc21 (single isomer, unassigned) [Example 106] | < 20 | –
C[C@@H]1CN(c2ncc(Cl)c(Nc3ccc4c(c3)CC(=O)N4CCC(C)(C)F)n2)CC[C@H]1Nc1ccc2c([C@H]3CCC(=O)NC3=O)nn(C)c2c1 (single isomer, unassigned) [Example 108] | < 20 | –
C[C@@H]1CN(c2ncc(Cl)c(Nc3ccc4c(c3)CC(=O)N4CCC(C)(C)F)n2)CC[C@H]1Nc1ccc2c([C@@H]3CCC(=O)NC3=O)nn(C)c2c1 (single isomer, unassigned) [Example 109] | < 20 | –
C[C@@H]1CN(c2ncc(Cl)c(Nc3ccc4c(c3)CC(=O)N4CC(C)(F)F)n2)CC[C@H]1Nc1ccc2c([C@H]3CCC(=O)NC3=O)nn(C)c2c1 (single isomer, unassigned) [Example 111] | < 20 | –
C[C@@H]1CN(c2ncc(Cl)c(Nc3ccc4c(c3)CC(=O)N4CC(C)(F)F)n2)CC[C@H]1Nc1ccc2c([C@@H]3CCC(=O)NC3=O)nn(C)c2c1 (single isomer, unassigned) [Example 112] | < 20 | –
CN1C(=O)Cc2cc(Nc3nc(N(C)[C@H]4CCN(c5ccc6c(C7CCC(=O)NC7=O)nn(C)c6c5)C(=O)C4)ncc3Cl)ccc21 (single isomer, unassigned) [Example 128] | 20 to 60 | –
